Results as given in BigSolDB 2.1.

O=C1c2cccc(O)c2C(=O)c2c(O)cc(CO)cc21
solubility (mole fraction)
Details	278.15 K	283.15 K	288.15 K	293.15 K	298.15 K	303.15 K	308.15 K	313.15 K	318.15 K
in ethanol	1.72e-05	2.11e-05	2.45e-05	3.09e-05	3.74e-05	4.36e-05	5.05e-05	6.2e-05	7.56e-05
in methanol	1.66e-06	2.23e-06	3.1e-06	4.29e-06	5.39e-06	7.71e-06	1.13e-05	1.6e-05	2.33e-05
in n-butanol	4.59e-05	5.17e-05	6.49e-05	7.71e-05	9.05e-05	0.000102	0.000122	0.000137	0.00016
in n-pentanol	7e-05	8.33e-05	0.0001	0.000118	0.000138	0.000158	0.00018	0.000207	0.000245
in n-propanol	1.82e-05	2.49e-05	3.07e-05	4e-05	5.26e-05	6.56e-05	7.38e-05	9.21e-05	0.000116
in sec-butanol	1.62e-05	2.05e-05	2.71e-05	3.67e-05	4.52e-05	5.44e-05	6.76e-05	8.02e-05	9.79e-05
in water	2.2e-07	3.21e-07	4.43e-07	5.69e-07	8.07e-07	1.21e-06	1.64e-06	2.22e-06	2.82e-06
